Test results from article PMC7313430, “Heme-Dependent ER Stress Apoptosis: A Mechanism for the Selective Toxicity of the Dihydroartemisinin, NSC735847, in Colorectal Cancer Cells” (Frontiers in Oncology, 2020).

Experiments:
HCT116 cells [1] = assay: MTS cell viability assay, colon cancer cells HCT116; assay type: cell-based, human
Description: (§1) The human colon cancer cell lines HT29 and HCT116 were cultured in McCoy's 5A medium (Sigma Aldrich, St. Louis, MO) containing 10% heat-inactivated fetal bovine serum (FBS), penicillin (100 units/ml), and streptomycin (100 μg/ml). The non-tumorigenic colon cell line, FHC, was cultured in DMEM: F12 (1:1) medium supplemented with 10% heat inactivated FBS, 25 mM HEPES (Thermo Fisher Scientific Inc., IL), 10 ng/ml cholera toxin (Sigma Aldrich, St. Louis, MO), 0.005 mg/ml insulin (Thermo Fisher Scientific Inc., IL), 0.005 mg/ml, transferrin (Sigma Aldrich, St. Louis, MO), 100 ng/ml hydrocortisone (Sigma Aldrich, St. Louis, MO), 20 ng/mL human recombinant epidermal growth factor (Thermo Fisher Scientific Inc., IL), 100 units/ml penicillin, and 100 μg/ml streptomycin.
(§2) Cells were cultured in 96-well-plates for 48 h before treatment. Serum-free media containing different agents was added to the cells at the concentration and time period described in the figure legend. MTS reagent (Promega, Madison, WI) was then added to each well and the absorbance was measured at 495 nm as directed by the manufacturer. In the presence of MTS reagent, the absorbance reading is proportional to the number of viable cells. The half-maximal inhibitory concentration (IC50) of the tested compounds is the concentration that reduces the viability of cells by 50%. IC50 was calculated after 24 h of treatment ([30], [31]) as described previously ([32]–[34]) from dose-response curves (log drug concentration vs. percentage viability from untreated cells) generated by non-linear regression analysis with GraphPad Prism 5 software (GraphPad Software, San Diego, California).

HT29 cells [2] = assay: TUNEL assay in HT29; assay type: cell-based, human; settings: 5 or 10 μM, 16 h
Description: (§3) HT29, HCT116, and FHC cells were cultured in chamber slides and treated with 5 μM NSC735847, 10 μM NSC735847, or vehicle (0.1% DMSO). The cells were then washed with PBS and fixed in 4% paraformaldehyde before detection of double stranded DNA breaks that are characteristic of apoptosis. Terminal deoxynucleotidyl transferase dUTP nick end labeling (TUNEL) assays were performed as described by the manufacturer (in situ Cell Death Detection Kit; Roche; Indianapolis, IN). Briefly, fixed cells were incubated in permeabilization solution (0.1% Triton X-100 in 0.1% sodium citrate) for 2 min on ice. The slides were rinsed twice with PBS, 50 μL TUNEL reaction mixture was added, and then the samples were incubated for 1 h at 37°C in the dark. The slides were overlayed with antifade mounting medium containing DAPI and then visualized using a Zeiss LSM 700 confocal microscope system (Carl Zeiss Microscopy, LLC, White Plains, NY).

FHC cells [3] = assay: MTS cell viability assay, non-tumorigenic colon cells; assay type: cell-based; settings: Homo sapiens, 24 h treatment
Description: as §1, §2

[4] = test system: caspase 3/7 activity in FHC cells; assay: Caspase-Glo 3/7 activity assay in FHC; assay type: cell-based, human; settings: 16 h, 1.25-10 μM
Description: (§4) The cells were plated in white-walled 96-well-plates and then they were cultured at 37°C for 48 h. Serum-free culture medium containing the appropriate concentration of different agents was added to the cells for the indicated period of time. Caspase-Glo 3/7 reagent (Promega, Madison, WI) was added to each well and luminescence was detected as directed by the manufacturer. The Caspase-Glo 3/7 kit measures the activity of the executioner caspases 3 and 7 using the luminogenic substrate (Z-DEVD-aminoluciferin) as substrate.

[5] = test system: caspase 3/7 activity in HCT-116 cells; assay: Caspase-Glo 3/7 activity assay in HCT116; assay type: cell-based, human; settings: 16 h, 1.25-10 μM
Description: as §4

HT29 cells [6] = assay: MTS cell viability assay, colon cancer cells HT29; assay type: cell-based, human
Description: as §1, §2

FHC cells [7] = assay: TUNEL assay in FHC; assay type: cell-based, human; settings: 5 or 10 μM, 16 h
Description: as §3

HCT116 cells [8] = assay: TUNEL assay in HCT116; assay type: cell-based, human; settings: 5 or 10 μM, 16 h
Description: as §3

[9] = test system: caspase 3/7 activity in HT29 cells; assay: Caspase-Glo 3/7 activity assay in HT29; assay type: cell-based, human; settings: 16 h, 1.25-10 μM
Description: as §4

[10] = test system: reactive oxygen species in HT29 cells; assay: Oxidative stress measurement with CM-H2DCFDA (DCF); assay type: cell-based, human; settings: HT29, 10 μM, 8 h
Description: Oxidative stress was measured in cultured cells by using the probe, chloromethyl-2′,7′ dichlorodihydrofluorescein diacetate (CM-H2DCFDA or DCF) purchased from Life Technologies (Grand Island, NY). […] The cells were loaded with 5 μM DCF in phenol red-free, serum-free medium for 30 min and then the cells were treated with the appropriate drug for the indicated period of time. The cells were then trypsinized and resuspended in serum-containing, phenol red-free medium. The fluorescence of DCF was measured using an Accuri C6 flow cytometer (BD Accuri Cytometers, Ann Arbor, MI) at an excitation wavelength of 488 and emission of 533 ± 30 nm.

[11] = test system: ferritin H mRNA in HT29 cells; assay: Ferritin mRNA qRT-PCR; assay type: cell-based, human; settings: HT29, 10 μM, 4, 8 and 16 h
Description: Total RNA was extracted from HT29 cells by utilizing TRI reagent (Sigma Aldrich, St. Louis, MO, USA) and then it was purified with the Direct-zol RNA MiniPrep Kit (Zymo Research, Irvine, CA, USA). cDNA was synthesized from purified RNA by using the iScript cDNA Synthesis Kit (Bio-Rad laboratories, Hercules, CA, USA). qRT-PCR was performed by using the iTaq Universal SYBR Green Supermix (Bio-Rad laboratories, Hercules, CA, USA) with the BioRad CFX96 thermocycler (Bio-Rad laboratories, Hercules, CA, USA). The specific primer pair sequences were 5′-[…]-3′ and 5′-[…]-3′ for β-actin; and 5′-[…]-3′ and 5′-[…]-3′ for ferritin H (heavy-chain). Cycle threshold values were normalized to the internal beta-actin control. The ratio of fold change was calculated using the Pfaffl method ([37]).

[12] = MTS, 24 h, single agents or combinations

## CC1CCC2C(C)C(OCC(COC3OC4OC5(C)CCC6C(C)CCC(C3C)C46OO5)=NO)OC3OC4(C)CCC1C32OO4 (stereo not shown) [compound (3)]
HCT116 cells [1]; Homo sapiens, HCT-116, MTS viability, 24 h treatment
  IC50: 11.8 µM
HCT116 cells [1]; [12]
  cell death / survival of HCT116 cells: induced death in a concentration-dependent manner
HT29 cells [2]
  TUNEL positive cells in HT29: increased the quantity of TUNEL positive cells
FHC cells [3]
  IC50: > 25 µM
[4]
  caspase 3/7 activity in FHC: not in FHC cells
[5]
  caspase 3/7 activity in HCT-116: significantly increased
HT29 cells [6]; Homo sapiens, HT-29, MTS viability, 24 h treatment
  IC50: 11 µM
HT29 cells [6]; [12]
  cell death / survival of HT29 cells: induced death in a concentration-dependent manner
FHC cells [7]
  TUNEL positive cells in FHC: absent
HCT116 cells [8]
  TUNEL positive cells in HCT-116: increased the quantity of TUNEL positive cells
[9]
  caspase 3/7 activity in HT-29: significantly increased
[10]
  intracellular oxidative stress (DCF fluorescence): increased the intracellular oxidative stress levels
[11]
  ferritin mRNA expression: upregulated the expression of ferritin mRNA
